Laboratory results reported in US11478486B2, “Association of actives for treating prostate cancer” (priority 2017, dated 2022).

Experiments:
Format in all cases: cell-based, human
AR-V7 [1] = test: CELIGO microscope observation of AR-V7 expression; conditions: 22Rv1 cells, 72 hours; enzalutamide 30.0 μM, SB202190 5.0 μM, LY2228820 2.5 μM; control 30.0%
Method: The expression of AR-V7 was observed by the CELIGO microscope in 22Rv1 cells after 72 hours of culture.

AR-V7 [2] = test: western blot of AR and AR-V7 expression in 22Rv1 cells; conditions: 22Rv1, 72 hours; abiraterone 7.5 μM, enzalutamide 7.5 μM, SB202190 (504)
Method: Western blot analysis was performed, detecting the wild-type form of AR and the AR-V7 form as well (FIG. 7). In this way the inventors tested the involvement of the p38 inhibitor in abiraterone and enzalutamide resistance, the AR-V7.

p38 (MAPK14) = test: p38 activation, western blot with anti-phospho-p38 antibody; conditions: 22Rv1 and LNCaP prostate cancer cells, 24 hours
Method: FIG. 1: Abiraterone induces p38 activation. Prostate cancer cells LNCaP (Androgen Receptor expressing cells) were treated with abiraterone (30 μM). Prostate cancer cells 22Rv1 (Androgen Receptor and AR-V7 expressing cells) were treated with 0.1, 1.0, 10.0 and 30.0 μM abiraterone during 24 hours. Protein were extracted and subjected to western blot analysis using anti-phospho-p38, anti-p38 and anti-tubulin antibodies. (Example 1)
[…]. A: LNCaP human prostate cells (Androgen Receptor expressing cells) were treated by enzalutamide (35.0 μM) during 24 h00. Phosphorylation p38 was assessed. Tubuline and non-phosphorylated proteins were stained as a loading control. B: same experiment with the Androgen Receptor and AR-V7 expressing 22Rv1 human prostate cancer cells (Example 1).

CC(C)(C)Cn1c(N)nc2ccc(-c3[nH]c(C(C)(C)C)nc3-c3ccc(F)cc3)nc21 [LY2228820]
% of cells with ARv7 (AR-V7 [1]): 34.0%

Oc1ccc(-c2nc(-c3ccncc3)c(-c3ccc(F)cc3)[nH]2)cc1 [SB202190]
AR-V7 expression (AR-V7 [2]): inhibits AR-V7 expression | % of cells with ARv7 (AR-V7 [1]): 28.0%

CNC(=O)c1ccc(N2C(=S)N(c3ccc(C#N)c(C(F)(F)F)c3)C(=O)C2(C)C)cc1F [enzalutamide]
activation of MAPK p38 (phosphorylated form of p38) (p38 (MAPK14)): activates the MAPK p38
